Assay [1] has as its target T1, human EGFR (wildtype), EGFR(DKIN) (Homo sapiens, UniProt P00533).
T1 construct: Kd for EGFR(DKIN); made in house
Description: Binding of wildtype-EGFR (T7 phage-displayed kinase competition binding). From the text: (§1) Methods for measuring binding affinities for interactions between small molecules and kinases including FLT3, c-KIT, ABL([…]) [a.k.a. ABL([…])], VEGFR-2 (a.k.a. KDR), and EGFR are described in detail in U.S. application Ser. No. 10/873,835, which is incorporated by reference herein in its entirety. The components of the assays include human kinases expressed as fusions to T7 bacteriophage particles and immobilized ligands that bind to the ATP site of the kinases. […] If the test compound binds the kinase it competes with the immobilized ligand and prevents binding to the solid support. […] The results are read out by quantitating the amount of fusion protein bound to the solid support, which is accomplished by either traditional phage plaque assays or by quantitative PCR (qPCR) using the phage genome as a template. […] The concentration of test molecule that reduces the number of phage bound to the solid support by 50% is equal to the Kd for the interaction between the kinase and the test molecule. Typically, data are collected for twelve concentrations of test compound and, the resultant binding curve is fit to a non-cooperative binding isotherm to calculate Kd. Described in the exemplary assays below is data from binding with varying kinases. […] The term “ND” represents non-determined values. […] The Kd for the interaction between the soluble compound (competitor) molecule and EGFR is equal to the concentration of soluble competitor molecule that causes a 50% reduction in the number of phage recovered in the eluate compared to a control sample lacking soluble competitor.

The next assay concerns the target T2, EGFR (E746-A750del) (Homo sapiens, UniProt P00533, DEL746-750).
T2 construct: made in house
Description: Binding of mutant-EGFR (phage-displayed kinase competition binding).
From the text: as §1

The next assay addresses T3, EGFR (G719C) (Homo sapiens, UniProt P00533, G719C).
T3 construct: made in house
The assay is described as above.
From the text: as §1

A further assay addresses T4, EGFR (G719S) (Homo sapiens, UniProt P00533, G719S).
T4 construct: made in house
The description is as above.
From the text: as §1

The target of assay [2] is T5, EGFR (L747-E749del, A750P) (Homo sapiens, UniProt P00533, A750P/DEL747-749).
T5 construct: made in house
Described as above.
From the text: as §1

Assay [3] addresses T6, EGFR (L747-T751del, Sins) (Homo sapiens, UniProt P00533, DEL747-750/T751S).
T6 construct: made in house
Described as above.
From the text: as §1

In assay [4] the target is T7, EGFR (L747-T752del, P753S) (Homo sapiens, UniProt P00533, DEL747-752/P753S).
T7 construct: made in house
T7 sequence (P00533 with tags, fused parts or gaps DEL747-752/P753S limits assumed): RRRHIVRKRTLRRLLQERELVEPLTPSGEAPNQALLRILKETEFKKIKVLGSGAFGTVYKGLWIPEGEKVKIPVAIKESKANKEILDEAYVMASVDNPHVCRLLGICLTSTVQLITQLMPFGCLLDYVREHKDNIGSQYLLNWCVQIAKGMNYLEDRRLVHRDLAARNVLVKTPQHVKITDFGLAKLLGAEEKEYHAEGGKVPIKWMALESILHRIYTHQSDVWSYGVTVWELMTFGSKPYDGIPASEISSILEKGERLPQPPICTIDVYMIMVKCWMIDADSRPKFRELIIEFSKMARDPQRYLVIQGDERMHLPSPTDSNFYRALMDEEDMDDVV
The description is as above.
From the text: as §1

In the next assay the target is T8, EGFR (L858R) (Homo sapiens, UniProt P00533, L858R).
T8 construct: made in house
The description is as above.
From the text: as §1

For a further assay, the target named is T9, EGFR (L861Q) (Homo sapiens, UniProt P00533, L861Q).
T9 construct: made in house
T9 sequence (P00533 25-1210 L861Q): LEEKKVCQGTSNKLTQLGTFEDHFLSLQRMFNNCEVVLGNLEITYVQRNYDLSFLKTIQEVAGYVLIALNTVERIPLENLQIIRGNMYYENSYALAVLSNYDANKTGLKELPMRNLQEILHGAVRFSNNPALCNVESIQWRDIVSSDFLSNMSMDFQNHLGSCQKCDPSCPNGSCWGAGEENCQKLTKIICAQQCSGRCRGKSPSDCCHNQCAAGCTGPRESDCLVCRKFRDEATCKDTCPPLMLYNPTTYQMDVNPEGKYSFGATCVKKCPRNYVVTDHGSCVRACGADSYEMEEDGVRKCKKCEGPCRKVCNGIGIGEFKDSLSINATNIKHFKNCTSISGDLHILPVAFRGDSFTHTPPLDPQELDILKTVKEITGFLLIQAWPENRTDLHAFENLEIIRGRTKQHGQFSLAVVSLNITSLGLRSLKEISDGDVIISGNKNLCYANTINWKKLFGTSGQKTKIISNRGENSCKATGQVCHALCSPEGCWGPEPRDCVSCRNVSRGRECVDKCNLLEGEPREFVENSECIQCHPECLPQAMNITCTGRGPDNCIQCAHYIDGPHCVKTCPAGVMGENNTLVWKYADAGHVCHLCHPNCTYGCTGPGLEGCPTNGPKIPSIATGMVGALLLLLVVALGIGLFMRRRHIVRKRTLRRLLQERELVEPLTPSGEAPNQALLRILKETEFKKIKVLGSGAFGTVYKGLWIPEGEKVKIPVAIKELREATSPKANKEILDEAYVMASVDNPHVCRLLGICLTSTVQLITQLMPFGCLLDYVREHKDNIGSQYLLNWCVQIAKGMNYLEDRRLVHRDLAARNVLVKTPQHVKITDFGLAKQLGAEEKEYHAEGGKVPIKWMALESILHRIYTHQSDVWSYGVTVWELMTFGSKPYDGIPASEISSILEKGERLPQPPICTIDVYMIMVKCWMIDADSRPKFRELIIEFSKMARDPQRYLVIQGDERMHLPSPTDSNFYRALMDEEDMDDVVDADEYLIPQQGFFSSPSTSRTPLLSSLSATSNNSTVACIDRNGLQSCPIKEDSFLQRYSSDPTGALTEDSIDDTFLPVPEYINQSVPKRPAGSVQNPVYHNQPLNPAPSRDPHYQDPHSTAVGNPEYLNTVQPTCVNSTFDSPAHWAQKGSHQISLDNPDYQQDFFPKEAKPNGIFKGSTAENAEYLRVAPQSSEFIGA
The description is as above.
From the text: as §1

A further assay concerns the target T10, EGFR (S752-1759del) (Homo sapiens, UniProt P00533, DEL752-759).
T10 construct: made in house
The description is as above.
From the text: as §1

Assay [5] addresses T11, EGFR (tyrosine 1173 phosphorylation) in A431 cells (Homo sapiens, UniProt P00533).
T11 construct: endogenous in cells; host or cells: A431
Description: EGFR Autophosphorylation Inhibition Assay in Epidermoid Carcinoma Cell Line A431. It is filed as cell-based. The following applies: EGF-induced phosphorylation of tyrosine 1173. As for the experimental part: (§2) Tyrosine 1173 is a major autophosphorylation site resulting from activation of EGFR by epidermal growth factor (EGF). To determine the capacity of a compound to inhibit this phosphorylation activity of EGFR upon itself, the following methodology was used: 4×10^4 A431 cells/well in a 96-well culture plate or 3.6×10^5 A549 cells/well in a 24-well culture plate were cultured overnight at 37° C. in 5% CO2 in low serum culture medium (DMEM supplemented with 0.5% fetal calf serum, 4.500 mg/L glucose and 100 units/ml penicillin-streptomycin). After 16 hours, the cells were pre-incubated in eight serial 3-fold dilutions of test compound (3.3 μM-0.0017 μM) in addition to vehicle control (final concentration on DMSO vehicle was 1%) for two hours. Cells were stimulated by the addition of 5 ng/ml of EGF for five minutes. Cells were then washed with cold phosphate buffered saline (PBS), and incubated for 30 minutes at 4° C. in lysis buffer. Subsequently, the samples were centrifuged at 6000× RCF for 15 minutes, and the level of phosphorylation of EGFR tyrosine 1173 was measured using a sandwich enzyme-linked immunosorbent assay following the manufacturer's recommended protocols (Biosource, Camarillo, Calif.). Total EGFR levels were also measured in the same manner to control for protein level differences. The reported values are those concentrations of compound required to inhibit EGF-induced phosphorylation of tyrosine 1173 by 50%.

Assay [6] addresses T12, EGFR (tyrosine 1173 phosphorylation) in Lung Cancer Cell Line A459 (Homo sapiens, UniProt P00533).
T12 construct: endogenous in cells
In words: EGFR Autophosphorylation Inhibition Assay in Lung Cancer Cell Line A459. It is filed as cell-based. As to conditions: EGF-induced phosphorylation of tyrosine 1173. As for the experimental part:
as §2

pIC50, pKd: −log10 of the molar value.

T4 sequence (P00533 25-1210 G719S): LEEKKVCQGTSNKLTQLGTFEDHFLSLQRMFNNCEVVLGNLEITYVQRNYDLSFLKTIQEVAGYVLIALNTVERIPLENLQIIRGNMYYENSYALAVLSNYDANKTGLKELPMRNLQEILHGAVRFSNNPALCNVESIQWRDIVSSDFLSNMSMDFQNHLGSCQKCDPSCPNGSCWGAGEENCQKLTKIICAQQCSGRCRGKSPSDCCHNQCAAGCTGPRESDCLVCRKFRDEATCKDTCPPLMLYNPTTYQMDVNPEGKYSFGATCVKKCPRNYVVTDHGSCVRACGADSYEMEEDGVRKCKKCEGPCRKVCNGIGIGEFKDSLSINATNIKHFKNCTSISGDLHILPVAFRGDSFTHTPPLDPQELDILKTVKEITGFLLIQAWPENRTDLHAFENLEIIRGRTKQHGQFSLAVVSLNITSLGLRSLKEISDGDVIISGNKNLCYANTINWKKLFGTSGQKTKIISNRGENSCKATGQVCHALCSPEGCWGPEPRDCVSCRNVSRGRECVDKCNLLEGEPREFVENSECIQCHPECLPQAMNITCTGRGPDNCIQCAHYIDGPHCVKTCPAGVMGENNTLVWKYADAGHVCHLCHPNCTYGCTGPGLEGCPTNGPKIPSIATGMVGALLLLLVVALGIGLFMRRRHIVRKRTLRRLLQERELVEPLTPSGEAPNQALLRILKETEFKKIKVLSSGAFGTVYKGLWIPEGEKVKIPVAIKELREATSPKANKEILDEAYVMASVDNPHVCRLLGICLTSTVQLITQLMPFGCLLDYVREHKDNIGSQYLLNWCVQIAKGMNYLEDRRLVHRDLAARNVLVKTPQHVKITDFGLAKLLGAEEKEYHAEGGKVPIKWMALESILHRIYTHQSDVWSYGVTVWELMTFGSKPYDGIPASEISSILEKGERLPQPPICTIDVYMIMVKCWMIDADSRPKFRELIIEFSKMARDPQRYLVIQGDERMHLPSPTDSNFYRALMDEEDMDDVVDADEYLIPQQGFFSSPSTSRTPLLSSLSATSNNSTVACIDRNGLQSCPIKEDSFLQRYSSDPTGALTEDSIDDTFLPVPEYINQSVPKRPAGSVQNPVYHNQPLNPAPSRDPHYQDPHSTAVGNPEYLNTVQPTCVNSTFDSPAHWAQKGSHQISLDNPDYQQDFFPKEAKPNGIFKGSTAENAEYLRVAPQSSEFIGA
T3 sequence (P00533 25-1210 G719C): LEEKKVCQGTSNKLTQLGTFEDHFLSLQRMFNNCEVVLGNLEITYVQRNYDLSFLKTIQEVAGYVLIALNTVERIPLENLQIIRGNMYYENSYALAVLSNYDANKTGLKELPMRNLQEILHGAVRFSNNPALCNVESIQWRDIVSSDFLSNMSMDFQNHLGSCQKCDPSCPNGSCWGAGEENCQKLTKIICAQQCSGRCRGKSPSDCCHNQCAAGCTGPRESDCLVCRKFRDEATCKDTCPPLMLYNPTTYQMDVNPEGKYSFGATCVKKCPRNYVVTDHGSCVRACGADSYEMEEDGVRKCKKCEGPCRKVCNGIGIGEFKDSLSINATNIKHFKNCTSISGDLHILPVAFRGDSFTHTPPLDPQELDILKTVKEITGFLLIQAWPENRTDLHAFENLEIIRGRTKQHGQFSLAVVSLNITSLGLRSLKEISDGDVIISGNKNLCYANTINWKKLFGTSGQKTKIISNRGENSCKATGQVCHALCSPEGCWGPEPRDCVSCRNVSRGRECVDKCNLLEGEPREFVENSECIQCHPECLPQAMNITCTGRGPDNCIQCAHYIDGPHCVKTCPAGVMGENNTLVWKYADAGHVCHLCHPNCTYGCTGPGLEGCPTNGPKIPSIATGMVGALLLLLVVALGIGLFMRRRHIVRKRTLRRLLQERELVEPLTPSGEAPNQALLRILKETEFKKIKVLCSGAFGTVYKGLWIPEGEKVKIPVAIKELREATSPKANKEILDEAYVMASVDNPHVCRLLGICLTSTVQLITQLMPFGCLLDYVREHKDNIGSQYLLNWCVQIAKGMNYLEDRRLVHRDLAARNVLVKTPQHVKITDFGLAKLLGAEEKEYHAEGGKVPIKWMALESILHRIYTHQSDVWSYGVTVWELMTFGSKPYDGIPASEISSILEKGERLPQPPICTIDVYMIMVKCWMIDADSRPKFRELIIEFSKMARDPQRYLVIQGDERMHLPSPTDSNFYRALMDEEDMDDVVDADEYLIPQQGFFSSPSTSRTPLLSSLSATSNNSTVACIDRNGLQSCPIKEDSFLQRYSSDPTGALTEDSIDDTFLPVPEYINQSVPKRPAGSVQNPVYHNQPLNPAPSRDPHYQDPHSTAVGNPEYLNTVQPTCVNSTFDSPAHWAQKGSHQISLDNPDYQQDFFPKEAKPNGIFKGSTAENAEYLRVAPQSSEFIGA
T10 sequence (P00533 with tags, fused parts or gaps DEL752-759 limits assumed): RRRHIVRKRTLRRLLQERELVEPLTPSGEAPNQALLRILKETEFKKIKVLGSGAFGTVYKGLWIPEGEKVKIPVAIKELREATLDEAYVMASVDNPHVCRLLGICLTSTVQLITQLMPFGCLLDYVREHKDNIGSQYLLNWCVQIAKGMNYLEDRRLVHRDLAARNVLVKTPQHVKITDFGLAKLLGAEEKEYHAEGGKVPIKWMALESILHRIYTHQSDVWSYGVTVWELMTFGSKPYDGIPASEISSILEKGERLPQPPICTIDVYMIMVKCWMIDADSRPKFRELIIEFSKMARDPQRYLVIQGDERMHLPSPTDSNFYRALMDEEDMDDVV
T1 sequence (P00533 712-979 limits assumed): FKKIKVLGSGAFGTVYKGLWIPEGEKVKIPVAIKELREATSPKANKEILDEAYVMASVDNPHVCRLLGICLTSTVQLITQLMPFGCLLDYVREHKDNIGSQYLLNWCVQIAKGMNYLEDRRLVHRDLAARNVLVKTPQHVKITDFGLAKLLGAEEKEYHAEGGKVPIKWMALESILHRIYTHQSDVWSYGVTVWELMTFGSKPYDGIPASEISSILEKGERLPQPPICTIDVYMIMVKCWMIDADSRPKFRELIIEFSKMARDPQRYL
T6 sequence (P00533 with tags, fused parts or gaps DEL747-750/T751S limits assumed): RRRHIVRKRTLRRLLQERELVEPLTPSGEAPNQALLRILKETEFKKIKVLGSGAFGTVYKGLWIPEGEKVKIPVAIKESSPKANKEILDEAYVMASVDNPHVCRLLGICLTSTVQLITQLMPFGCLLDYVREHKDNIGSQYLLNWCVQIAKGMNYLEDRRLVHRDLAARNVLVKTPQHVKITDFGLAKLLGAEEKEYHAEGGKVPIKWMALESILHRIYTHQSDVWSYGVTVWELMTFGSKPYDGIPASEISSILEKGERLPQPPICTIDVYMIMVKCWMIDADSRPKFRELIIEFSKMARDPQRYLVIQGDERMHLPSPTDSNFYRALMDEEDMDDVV

On to `Clc1ccc(Sc2ncnc3c2[nH]c2ccccc23)cc1Cl` [Compound K5], for which the pKd (in assay [1]; on EGFR (E746-A750del); at EGFR (G719C); at EGFR (G719S); in [2]; in assay [3]) was greater than 7.00 in each case. Further, the pKd (commonly the negative decadic logarithm of the Kd, by convention in mol/L) in assay [4] was greater than 7.00; on EGFR (L858R), greater than 7.00; at EGFR (L861Q), 6.00 to 7.00; at EGFR (S752-1759del) it was greater than 7.00. The pIC50 in assay [5] and in assay [6] was 6.00 to 7.00 each time.

In [1], `Oc1ccc(-c2cc3c(Sc4cccc(F)c4)ncnc3[nH]2)cc1` [Compound L3] had a pKd greater than 7.00. The pIC50 (in general, −log10 of the IC50, conventionally taken in molar units) in assay [5] was greater than 7.00; in assay [6], 5.00 to 6.00.

Take `Oc1ccc(-c2cc3c(Sc4ccccc4)ncnc3[nH]2)cc1` [Compound L2]: the pKd (in assay [1]; at EGFR (E746-A750del); at EGFR (G719C); at EGFR (G719S); in [2]; in [3]) was greater than 7.00 each time. Further, the pKd (in [4]; at EGFR (L858R); at EGFR (L861Q); at EGFR (S752-1759del)) was greater than 7.00 each time. Moreover, the pIC50 in assay [5] was greater than 7.00; in [6], 6.00 to 7.00.

In the case of `COc1cccc(-c2cc3c(Sc4cccc(C)c4)ncnc3[nH]2)c1` [Compound J27], the pKd in [1] is 6.00 to 7.00. For the same compound, the pIC50 in assay [5] was 6.00 to 7.00; in [6] it was 5.00 to 6.00.

As for `COc1cccc(-c2cc3c(Sc4ccc(C)cc4)ncnc3[nH]2)c1` [Compound J31], the pKd in [1] is greater than 7.00. The pIC50 in assay [5] was 5.00 to 6.00; in assay [6], less than 5.00.

With `COc1cccc(-c2cc3c(Oc4cccc(Br)c4)ncnc3[nH]2)c1` [Compound D19], in assay [1], the pKd was greater than 7.00. For the same compound, the negative-log IC50 (pIC50) in assay [5] is 6.00 to 7.00; in [6], 5.00 to 6.00.

In the case of `Oc1ccc(-c2cc3c(Oc4cccc(Br)c4)ncnc3[nH]2)cc1` [Compound E3], the pKd (in assay [1]; on EGFR (E746-A750del); at EGFR (G719C); on EGFR (G719S); in assay [2]; in [3]) was greater than 7.00 throughout. Also, the pKd (in [4]; on EGFR (L858R); on EGFR (L861Q); at EGFR (S752-1759del)) was greater than 7.00 throughout. Further, the pIC50 is greater than 7.00 in assay [5] and 6.00 to 7.00 in assay [6].

`Oc1ccc(-c2cc3c(Sc4ccc(F)cc4)ncnc3[nH]2)cc1` [Compound L8] gave a negative logarithm of the Kd (pKd) in assay [1] greater than 7.00. Also, the pIC50 in assay [5] was greater than 7.00; in assay [6], 5.00 to 6.00.

(Values after US20050239806A1, “Pyrrolopyrimidine derivatives and analogs and their use in the treatment and prevention of diseases” (Ambit Biosciences Corporation, priority 2004, published 2005).)
